Source: patent publication US11098040B2, “Compounds and methods of use” (Ferro Therapeutics, Inc., priority 2018, dated 2021)
Like-named read-outs stand apart in the source and are kept apart here.

Key:
H2228 = assay: Cell viability assay (CellTiter Glo), lung cancer cell line H2228; assay type: cell-based; conditions: Homo sapiens, NCI-H2228
Protocol: (§1) Cell viability assay was performed to assess the potency of the compounds in human cancer cell lines KP4 (pancreatic ductal adenocarcinoma), MiaPaCa-2 (pancreatic carcinoma), AsPC-1 (pancreatic adenocarcinoma, ascites), 143B (osteosarcoma), and SJSA-1 (osteosarcoma). Selected compounds were also assayed in a human breast epithelial cell line MCF-10A, a nontumorigenic cell line as a control to assess differential activity. Cells at a density of 500-5,000 cells/well were seeded in 96-well plates and incubated at 37° C. overnight. A series of 9 different concentrations of compound stocks (500×) were created by 3-fold serial dilution in DMSO. These compounds were further diluted in culture media and then added to cells so that the final DMSO concentration was equal to 0.25% or less. After 96 hours of incubation, 50 μL of CellTiter Glo reagent (Promega) was added to each well and luminescence was measured after 10 minutes using EnVision (PerkinElmer). Compounds titrated from top concentration of up to 30 μM. The select compounds were tested initially from 30 μM as the top concentration in duplicates (range of 4.6 nM-30 μM). […] Luminescence from cells treated with DMSO alone was set as Max and % of inhibition was calculated as follows: Inhibition %=(Max-Sample value)/Max*100. Data was analyzed using XL-fit software (ID Business Solutions Ltd.). IC50, relative IC50, or % of top inhibition was calculated.
(§2) A group of selected analogs were further profiled in cell viability assays described above in multiple additional cancer cell lines, including lung cancer, melanoma, hepatocarcinoma, pancreatic cancer, leukemia, lymphoma, ovarian cancer, breast cancer, colon cancer, and sarcoma cell lines. Initial cell seeding numbers were adjusted for each cell line. Typically, 500-5000 cells/well for adherent cells and 5000-10000/well for suspension cells were seeded in 96-well plates.

MiaPaCa-2 = assay: Cell viability assay (CellTiter Glo), pancreatic carcinoma MiaPaCa-2; assay type: cell-based; conditions: Homo sapiens
Summary of the method: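 MiaPaCa-2 and AsPC-1 cells were seeded overnight at 37 °C and exposed for 96 h to 9-point, 3-fold dilutions from up to 30 μM (final DMSO ≤0.25%). CellTiter Glo luminescence was read, and inhibition was calculated relative to DMSO-only cells. IC50, relative IC50 or % top inhibition was derived.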

AsPC-1 = assay: Cell viability assay (CellTiter Glo), pancreatic adenocarcinoma AsPC-1; assay type: cell-based; conditions: Homo sapiens, ASPC1
Protocol: as §1
(§3) The results of the assay in the pancreatic cell lines are given in Table 15a for PANC1, Table 15b for MiaPaCa-2, and Table 15c for AsPC-1.

143B = assay: Cell viability assay (CellTiter Glo), osteosarcoma 143B; assay type: cell-based; conditions: Homo sapiens, Cell Line 143B, read-out: IC50
Protocol: as §1
(§4) The results of the assay in sarcoma cell lines are given in Table 21a for HT-1080 luc2 (fibrosarcoma expressing a luciferase gene), Table 21b for 143B (osteosarcoma), and Table 21c for SJSA-1 (osteosarcoma).

KP4 = assay: Cell viability assay (CellTiter Glo), pancreatic ductal adenocarcinoma KP4; assay type: cell-based, human; conditions: Homo sapiens, KP-4, Cell Line KP4; read-out: IC50
Summary of the method: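 KP4 cells seeded at 1,000–10,000 per well, treated 96 h with 9-point 3-fold dilutions from 30 μM top (4.6 nM–30 μM, duplicates; ≤0.25% DMSO). Viability by CellTiter Glo luminescence; % inhibition relative to DMSO-only wells, giving IC50, relative IC50 or % top inhibition.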

Panc 02.13 = assay: Cell proliferation assay, pancreatic cancer cell line Panc 02.13; assay type: cell-based
Protocol: (§5) Cell viability assay was performed to assess the potency of the compounds in human cancer cell lines 786-O (renal cell carcinoma) and SJSA-1 (osteosarcoma). Additional cell lines, such as those described above in Example 4 as well as various others, e.g., pancreatic cancer cell lines (Panc 02.13, BxPC-3, Panc 12, Panc 02.03, Panc 6.03, PSN-1, HPAC, and Capan-1) and prostate cancer cell lines (PC-3, DU145, 22Rv1, NCI-H660, BPH1, LNCaP, BM-1604, and MDA PCa 2b), were tested for select compounds as shown in Table 25.
(§6) The cell proliferation assays for the compounds shown Table 25 was performed according to the protocols described herein, including Examples 4 and 6.

BxPC-3 = assay: Cell proliferation assay, pancreatic cancer cell line BxPC-3; assay type: cell-based; conditions: Homo sapiens
Protocol: as §5, §6

Panc 12 = assay: Cell proliferation assay, pancreatic cancer cell line Panc 12; assay type: cell-based; conditions: Cell Line Panc 12
Protocol: as §5, §6

Panc 02.03 = assay: Cell proliferation assay, pancreatic cancer cell line Panc 02.03; assay type: cell-based; conditions: Homo sapiens
Protocol: as §5, §6

Panc 6.03 = assay: Cell proliferation assay, pancreatic cancer cell line Panc 6.03; assay type: cell-based
Protocol: as §5, §6

PSN-1 = assay: Cell proliferation assay, pancreatic cancer cell line PSN-1; assay type: cell-based; conditions: Homo sapiens, PSN1
Protocol: as §5, §6

HPAC = assay: Cell proliferation assay, pancreatic cancer cell line HPAC; assay type: cell-based; conditions: Homo sapiens
Protocol: as §5, §6

Capan-1 = assay: Cell proliferation assay, pancreatic cancer cell line Capan-1; assay type: cell-based; conditions: Homo sapiens
Protocol: as §5, §6

H1299 = assay: Cell viability assay (CellTiter Glo), lung cancer cell line H1299; assay type: cell-based; conditions: Homo sapiens, NCI-H1299, 96 hours
Protocol: as §1, §2

MDA-MB-435S = assay: Cell viability assay (CellTiter Glo), melanoma cell line MDA-MB-435S; assay type: cell-based; conditions: Homo sapiens, 96 hours
Protocol: as §1, §2

Huh7 = assay: Cell viability assay (CellTiter Glo), hepatocellular carcinoma Huh7; assay type: cell-based; conditions: Homo sapiens, Huh-7, 96 hours
Protocol: as §1, §2

PANC1 = assay: Cell viability assay (CellTiter Glo), pancreatic cell line PANC1; assay type: cell-based; conditions: Homo sapiens, PANC-1, 96 hours
Protocol: as §1, §2, §3

MV-4-1 = assay: Cell viability assay (CellTiter Glo), leukemia cell line MV-4-1; assay type: cell-based; conditions: 96 hours
Protocol: as §1, §2
(§7) The results of the assay in the leukemia cell lines are given in Table 16a for MV-4-1 and Table 16b for HL-60 and Kasumi-1.

HL-60 = assay: Cell viability assay (CellTiter Glo), leukemia cell line HL-60; assay type: cell-based; conditions: Homo sapiens, 96 hours
Protocol: as §1, §2, §7

Kasumi-1 = assay: Cell viability assay (CellTiter Glo), leukemia cell line Kasumi-1; assay type: cell-based; conditions: Homo sapiens, 96 hours
Protocol: as §1, §2, §7

REC-1 = assay: Cell viability assay (CellTiter Glo), lymphoma cell line REC-1; assay type: cell-based; conditions: Homo sapiens, Rec1, 96 hours
Protocol: as §1, §2

Raji = assay: Cell viability assay (CellTiter Glo), lymphoma cell line Raji; assay type: cell-based; conditions: Homo sapiens, 96 hours
Protocol: as §1, §2

SK-OV-3 = assay: Cell viability assay (CellTiter Glo), ovarian cancer cell line SK-OV-3; assay type: cell-based; conditions: Homo sapiens, 96 hours
Protocol: as §1, §2

HCC1954 = assay: Cell viability assay (CellTiter Glo), breast cancer cell line HCC1954; assay type: cell-based; conditions: Homo sapiens, 96 hours
Protocol: as §1, §2

HT29 = assay: Cell viability assay (CellTiter Glo), colon cancer cell line HT29; assay type: cell-based; conditions: Homo sapiens, HT-29, 96 hours
Protocol: as §1, §2

SW480 = assay: Cell viability assay (CellTiter Glo), colon cancer cell line SW480; assay type: cell-based; conditions: Homo sapiens, 96 hours
Protocol: as §1, §2

HT-1080 luc2 = assay: Cell viability assay (CellTiter Glo), fibrosarcoma HT-1080 luc2; assay type: cell-based; conditions: Homo sapiens, fibrosarcoma expressing a luciferase gene, 96 hours, CellTiter Glo, read-out: IC50 HT-1080 luc2
Protocol: as §1, §2, §4

SJSA-1 = assay: Cell viability assay (CellTiter Glo), osteosarcoma SJSA-1; assay type: cell-based; conditions: Homo sapiens, 96 hours
Summary of the method: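 Cells seeded at 500-5,000/well overnight, then 96 h exposure to 9-point 3-fold dilutions from up to 30 μM (4.6 nM-30 μM), final DMSO ≤0.25%. Viability by CellTiter Glo luminescence; inhibition relative to DMSO-only cells, yielding IC50, relative IC50 or % top inhibition.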

MCF-10A = assay: Cell viability assay (CellTiter Glo), non-tumorigenic breast epithelial cell line MCF-10A; assay type: cell-based; conditions: Homo sapiens, 96 hours
Summary of the method: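 MCF-10A cells (500-5,000/well) treated 96 h at 37° C with 9-point 3-fold dilutions from up to 30 μM, ≤0.25% DMSO, in duplicate. Viability by CellTiter Glo luminescence; % inhibition versus DMSO-only wells gave IC50, relative IC50 or % top inhibition. Paclitaxel positive control.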

[1] = lung cancer cell line, 96 hours, CellTiter Glo, read-out: IC50 H2228

Row | Compound | IC50 (H1299) [nM] | IC50 (H2228; [1]) [nM] | IC50 (MDA-MB-435S) [nM] | IC50 (Huh7) [nM] | IC50 (PANC1) [nM] | IC50 (MV-4-1) [nM] | IC50 (HL-60) [nM] | IC50 (Kasumi-1) [nM] | IC50 (REC-1) [nM] | IC50 (Raji) [nM] | IC50 (SK-OV-3) [nM] | IC50 (HCC1954) [nM] | IC50 (HT29) [nM] | IC50 (SW480) [nM] | IC50 (HT-1080 luc2) [nM] | IC50 (SJSA-1) [nM] | IC50 (MCF-10A) [nM] | further results
1 | C[C@H]1Cc2c([nH]c3ccccc23)[C@H](c2ccc(N3CCC3)cc2)N1C(=O)CCl [Compound 239] |  |  |  |  |  |  |  |  |  |  |  |  |  |  |  |  |  | IC50 (H2228; Cell Line H2228, read-out: IC50): 14.6 nM; IC50 (MiaPaCa-2; Cell Line Mia PaCa-2, read-out: IC50): 259 nM; IC50 (AsPC-1; Cell Line AsPC-1, read-out: IC50): 65.2 nM; IC50 (143B): 1120 nM; IC50 (KP4): 4 nM; IC50 (Panc 02.13): 1110 nM; IC50 (BxPC-3): 910 nM; IC50 (Panc 12): 57.8 nM; IC50 (Panc 02.03): 394 nM; IC50 (Panc 6.03): 166 nM; IC50 (PSN-1): 183 nM; IC50 (HPAC): 321 nM; IC50 (Capan-1): > 1000 nM
2 | COC(=O)[C@H]1Cc2c([nH]c3ccccc23)[C@H](c2ccc(N[C@]34CC5C[C@H](C[C@H](C5)C3)C4)cc2)N1C(=O)CCl [Example 29] | 5 | 32 | 6 | 13 | 27 | 48 | 31 | 28 | 27 | 9 | 12 | 38 | 49 | 2000 | 5 | 14 | 410 | IC50 (MiaPaCa-2; MIA PaCa-2, pancreatic carcinoma, 96 hours, CellTiter Glo, read-out: IC50 MiaPaCa-2): 33 nM; IC50 (AsPC-1; pancreatic adenocarcinoma, ascites, 96 hours, CellTiter Glo, read-out: IC50 AsPC-1): 23 nM
3 | COC(=O)[C@H]1Cc2c([nH]c3ccccc23)[C@H](c2ccc(NCC3CC3)cc2)N1C(=O)CCl [Example 83] | 41 | 112 | 47 | 120 | > 1000 | 524 |  |  | 516 | 151 | 230 | 333 | 338 | 10500 | 38 |  | 3790 | 
4 | COC(=O)c1ccc([C@@H]2c3[nH]c4ccc(F)cc4c3C[C@H](C(=O)OC)N2C(=O)CCl)cc1 [Example 92] | 13 | 50 | 17 | 73 | 78 | 129 |  |  | 70 | 28 | 47 | 96 | 228 | 533 | 12 |  | 1140 | 
5 | C[C@H]1Cc2c([nH]c3ccc(F)cc23)[C@H](c2ccc(N3CCOCC3)cc2)N1C(=O)CCl [Example 114] |  |  |  |  |  |  | 120 | 145 |  |  |  |  |  |  |  | 115 |  | 
